# Measured values: patent US20180093104A1, “LIGHT IRRADIATION METHOD, LIGHT IRRADIATION DEVICE, LIGHT IRRADIATION SYSTEM, DEVICE SYSTEM FOR PHOTODYNAMIC DIAGNOSIS OR PHOTODYNAMIC THERAPY, SYSTEM FOR SPECIFYING TUMOR SITE AND SYSTEM FOR TREATING TUMOR” (SONY CORPORATION, priority 2015, published 2018)
# Tested on: MCF7 (Human breast adenocarcinoma-derived cell line)
# Test: In vitro PDT experiment: calcein fluorescence viability observation after 405 nm pulse laser irradiation
# Assay type: cell-based
# Description: In vitro experiments of PDT were performed by using the following materials. Target cells: MCF7 (Human breast adenocarcinoma-derived cell line) Dish: φ35 mm glass bottom dish (non-coated) Culture medium: D-MEM-10% FBS-1% P/S-1 mM pyruvate sodium Photosensitizer: 10 μg/ml talaporfin Viability assay fluorescence reagent: 10 μg/ml calcein Firstly, dishes A and B in which MCF7 had been cultured in the culture medium described above were prepared. Into the dish A, talaporfin was not added, and the dish A was used as a control. Into the dish B, talaporfin at 10 μg/ml was added. […] After the irradiation, incubation was performed further for 18 hours, the cultured cells in each dish were washed twice with phosphate-buffered saline (PBS), substitution with 1 ml of calcein at 10 μg/ml was performed, and the cultured cells in each dish were observed.
structure (smiles),measurement,setting,value
C=Cc1c(C)c2cc3nc(c(CC(=O)N[C@@H](CC(=O)O)C(=O)O)c4[nH]c(cc5nc(cc1[nH]2)C(C)=C5CC)c(C)c4C(=O)O)[C@@H](CCC(=O)O)[C@@H]3C [talaporfin],"killing of cultured cells (calcein fluorescent image, FIG. 8 vs FIG. 7)","Experiment 1: 10 μg/ml talaporfin, 24 hours incubation, pulse laser 405 nm, 120 fs, 1 mW for 30 minutes, observed 18 hours after irradiation, compared with dish A without talaporfin",significantly killed
same,killing of cultured cells in parts of the dish where irradiation had not been performed,"Experiment 2: 10 μg/ml talaporfin, 24 hours incubation, non-irradiated parts of dish B",not able to be confirmed
same,"killing of cultured cells (calcein fluorescent image, FIG. 10 vs FIG. 9)","Experiment 2: 10 μg/ml talaporfin, 24 hours incubation, pulse laser 405 nm for 10 minutes, compared with dish A without talaporfin",significantly killed
same,"killing of cultured cells (calcein fluorescent image, FIG. 12)","Experiment 3: 10 μg/ml talaporfin, 24 hours incubation, not irradiated with a pulse laser",not killed
same,"killing of cultured cells (calcein fluorescent image, FIG. 14)","Experiment 4: 10 μg/ml talaporfin, 1.5 hours incubation, pulse laser 405 nm for 10 minutes",the cells were alive
